Experimental data: ChEMBL document CHEMBL4825780 (ACS Med Chem Lett, 2021)
Calls of active or inactive are those of the source. The calls are words filed in the database; no cut-off is given here.

How the values were obtained:
[1] = target: Cyclin-C/Cyclin-dependent kinase 19 (Homo sapiens, UniProt Q9BWU1); assay: Inhibition of tracer 236 binding to recombinant human GST/His-tagged CDK11 (1 to 502 residues)/Cyclin C( 1 to 283 residues) expressed in insect cells by Lanthascreen assay
CDK8/Cyclin C = CDK8/Cyclin C (Homo sapiens, UniProt P49336); assay: Inhibition of tracer 236 binding to recombinant human His-tagged full length CDK8/Cyclin C expressed in baculovirus expression system by Lanthascreen assay
[2] = Metabolic stability in mouse hepatocytes assessed as intrinsic clearance; format: ADME, cell-based, Hepatocyte
[3] = Metabolic stability in mouse hepatocytes assessed as half life; format: ADME, cell-based, Hepatocyte
[4] = target: Cyclin-dependent kinase 8 (Homo sapiens, UniProt P49336)
Description: Inhibition of human CDK8 in human Jurkat cells assessed as inhibition of STAT1 phosphorylation at S727 residue measured after 24 hrs by Western blot assay

[5] = Volume of distribution at steady state in C57Bl/6 mouse at 10 mg/kg, po or 2 mg/kg, iv; format: ADME, organism-based; details: in vivo, read-out: Vdss
[6] = Oral bioavailability in C57Bl/6 mouse at 10 mg/kg; format: ADME, organism-based; details: in vivo
[7] = target: T1, Serine/threonine-protein kinase 16 (Homo sapiens, UniProt O75716); assay: Inhibition of human wild type partial length STK16 (G11 to I305 residues) expressed in bacterial expression system at 1 uM measured by Kinomescan method
[8] = Clearance in C57Bl/6 mouse at 10 mg/kg, po or 2 mg/kg, iv; format: ADME, organism-based; details: in vivo
[9] = Half life in C57Bl/6 mouse at 10 mg/kg, po; format: ADME, organism-based; details: in vivo
[10] = test system: T2, Receptor-type tyrosine-protein kinase FLT3 (Homo sapiens), P36888 [D835V]; assay: Inhibition of human partial length FLT3 […] mutant (V592 to Y969 residues) expressed in mammalian expression system at 1 uM measured by Kinomescan method
T2 sequence (whole entry): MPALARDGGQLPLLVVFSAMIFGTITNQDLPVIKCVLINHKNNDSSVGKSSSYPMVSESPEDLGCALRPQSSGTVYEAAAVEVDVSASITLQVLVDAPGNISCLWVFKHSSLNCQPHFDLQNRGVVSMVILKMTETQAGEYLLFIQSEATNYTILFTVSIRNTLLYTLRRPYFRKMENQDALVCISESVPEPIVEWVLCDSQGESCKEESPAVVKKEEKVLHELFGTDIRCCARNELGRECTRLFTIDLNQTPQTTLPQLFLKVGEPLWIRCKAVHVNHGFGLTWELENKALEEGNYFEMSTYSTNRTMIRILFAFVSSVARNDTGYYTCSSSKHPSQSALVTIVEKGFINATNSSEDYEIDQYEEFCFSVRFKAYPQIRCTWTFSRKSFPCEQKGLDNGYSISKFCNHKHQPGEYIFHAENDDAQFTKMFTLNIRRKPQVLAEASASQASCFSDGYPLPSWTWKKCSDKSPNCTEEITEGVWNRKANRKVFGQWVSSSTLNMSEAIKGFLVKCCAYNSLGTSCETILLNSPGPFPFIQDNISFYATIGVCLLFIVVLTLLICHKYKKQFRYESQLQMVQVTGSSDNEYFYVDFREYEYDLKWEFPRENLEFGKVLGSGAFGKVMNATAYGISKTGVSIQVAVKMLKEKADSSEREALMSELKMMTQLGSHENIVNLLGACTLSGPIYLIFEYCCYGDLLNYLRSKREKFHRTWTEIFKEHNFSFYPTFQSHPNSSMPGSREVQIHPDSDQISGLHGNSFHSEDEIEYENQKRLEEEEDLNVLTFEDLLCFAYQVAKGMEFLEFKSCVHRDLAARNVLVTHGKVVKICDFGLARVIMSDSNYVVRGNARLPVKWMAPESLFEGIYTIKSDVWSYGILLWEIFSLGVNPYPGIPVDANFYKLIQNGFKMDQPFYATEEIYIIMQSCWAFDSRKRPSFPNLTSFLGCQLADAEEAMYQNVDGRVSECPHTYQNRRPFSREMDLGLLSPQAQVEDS

[11] = target: T1, Serine/threonine-protein kinase 16; assay: Inhibition of human wild type partial length STK16 (G11 to I305) expressed in bacterial expression system by Kinomescan method
[12] = AUC in C57Bl/6 mouse at 10 mg/kg, po; format: ADME, organism-based; design: dose 10 mg/kg; details: in vivo
[13] = Cmax in C57Bl/6 mouse at 10 mg/kg, po; format: ADME, organism-based; design: route oral, dose 10 mg/kg; details: in vivo

Chain of CDK8/Cyclin C (P49336 whole entry): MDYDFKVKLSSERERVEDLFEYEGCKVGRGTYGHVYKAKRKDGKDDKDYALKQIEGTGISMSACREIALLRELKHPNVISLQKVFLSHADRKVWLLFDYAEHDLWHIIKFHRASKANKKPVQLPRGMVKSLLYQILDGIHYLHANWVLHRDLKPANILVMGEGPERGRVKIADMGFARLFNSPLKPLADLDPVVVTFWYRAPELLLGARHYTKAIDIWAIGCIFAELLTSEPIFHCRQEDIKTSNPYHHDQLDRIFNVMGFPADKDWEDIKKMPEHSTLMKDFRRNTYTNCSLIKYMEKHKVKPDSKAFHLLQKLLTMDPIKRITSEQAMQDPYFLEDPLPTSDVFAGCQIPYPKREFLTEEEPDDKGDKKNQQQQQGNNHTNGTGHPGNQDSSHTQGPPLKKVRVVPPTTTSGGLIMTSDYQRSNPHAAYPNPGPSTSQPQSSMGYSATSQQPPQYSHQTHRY
Chain of CDK8/Cyclin C (P24863 whole entry, further chain): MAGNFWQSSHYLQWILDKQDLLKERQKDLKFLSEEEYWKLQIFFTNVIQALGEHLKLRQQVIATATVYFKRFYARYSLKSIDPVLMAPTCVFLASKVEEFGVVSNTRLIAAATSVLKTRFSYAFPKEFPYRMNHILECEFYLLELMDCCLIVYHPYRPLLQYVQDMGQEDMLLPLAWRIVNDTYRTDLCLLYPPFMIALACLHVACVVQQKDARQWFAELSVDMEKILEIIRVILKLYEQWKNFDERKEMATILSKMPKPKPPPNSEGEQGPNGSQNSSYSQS
Chain of Cyclin-C/Cyclin-dependent kinase 19 (Q9BWU1 whole entry, the tested form may be a part): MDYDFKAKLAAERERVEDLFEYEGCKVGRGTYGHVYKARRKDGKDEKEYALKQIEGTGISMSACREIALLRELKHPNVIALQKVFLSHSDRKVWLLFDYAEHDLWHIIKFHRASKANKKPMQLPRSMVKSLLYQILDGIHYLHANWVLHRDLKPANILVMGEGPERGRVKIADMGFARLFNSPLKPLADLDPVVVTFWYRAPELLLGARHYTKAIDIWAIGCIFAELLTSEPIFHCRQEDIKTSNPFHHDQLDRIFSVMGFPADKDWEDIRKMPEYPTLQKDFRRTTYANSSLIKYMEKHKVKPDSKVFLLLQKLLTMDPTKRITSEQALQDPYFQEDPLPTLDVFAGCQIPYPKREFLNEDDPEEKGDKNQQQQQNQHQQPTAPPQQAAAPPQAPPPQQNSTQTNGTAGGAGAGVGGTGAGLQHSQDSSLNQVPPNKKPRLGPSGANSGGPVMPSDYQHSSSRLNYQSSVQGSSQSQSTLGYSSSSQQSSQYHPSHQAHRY
Chain of Cyclin-C/Cyclin-dependent kinase 19 (P24863 whole entry, further chain, the tested form may be a part): as the sequence (P24863 whole entry, further chain) above
T1 sequence (O75716 whole entry, the tested form may be a part): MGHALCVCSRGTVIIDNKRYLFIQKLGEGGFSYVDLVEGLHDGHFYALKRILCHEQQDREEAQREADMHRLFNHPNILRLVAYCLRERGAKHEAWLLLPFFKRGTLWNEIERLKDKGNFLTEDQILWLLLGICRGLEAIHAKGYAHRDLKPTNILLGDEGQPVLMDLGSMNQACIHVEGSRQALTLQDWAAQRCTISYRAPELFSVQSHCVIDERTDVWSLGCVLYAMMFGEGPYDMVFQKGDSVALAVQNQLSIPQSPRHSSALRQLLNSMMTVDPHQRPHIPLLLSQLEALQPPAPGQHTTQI
Chain of Cyclin-dependent kinase 8 (P49336 whole entry): as the sequence (P49336 whole entry) above

| SMILES | IC50 [1] [nM] | IC50 (CDK8/Cyclin C) [nM] | further results |
| --- | --- | --- | --- |
| O=C1NCCC12CCN(c1c(-c3ccc4ncsc4c3)cnc3[nH]ccc13)CC2 | 80 | 25 |  |
| Cn1ncc2cc(-c3cnc4[nH]ccc4c3N3CC4(CCNC4=O)C3)ccc21 | 426 | 538 |  |
| O=C1NCCC12CCN(c1c(-c3ccc4ncnn4c3)cnc3[nH]ccc13)CC2 | 1020 | 274 |  |
| Cc1n[nH]c2ncc(C(=O)N3CCC[C@H]3c3ccc(Cl)cc3)cc12 |  |  | IC50 [4]: 3 nM |
| O=C1NCCC12CCN(c1c(-c3ccc4[nH]cnc4c3)cnc3[nH]ccc13)CC2 | 17 | 5 |  |
| Cn1cnc2cc(-c3cnc4[nH]ccc4c3N3CCC4(CCNC4=O)CC3)ccc21 | 50 | 32 |  |
| Cn1ncc2cc(-c3cnc4[nH]ccc4c3N3CCC4(CCNC4=O)C3)ccc21 (stereo not drawn) | 29 | 55 |  |
| Cn1ncc2cc(-c3cnc4[nH]ccc4c3N3CCC4(CCNC4=O)CC3)ccc21 |  |  | intrinsic clearance (CLint) [2]: 78 µL/min/mg; half-life [3]: 9 min |
| O=C1NCCC12CCN(c1c(-c3ccn4ccnc4c3)cnc3[nH]ccc13)CC2 | 68 | 76 |  |
| Cn1ncc2cc(-c3cnc4[nH]ccc4c3N3CC4(CNC(=O)C4)C3)ccc21 | 698 | 916 |  |
| O=C1NCCC12CCN(c1c(-c3ccc4scnc4c3)cnc3[nH]ccc13)CC2 | 14 | 6 |  |
| Cn1ncc2cc(-c3cnc4[nH]ncc4c3N3CCC4(CCNC4=O)CC3)ccc21 | 214 | 178 | intrinsic clearance (CLint) [2]: 59 µL/min/mg; half-life [3]: 11 min |

Now from value to compound, other results behind:

| IC50 [1] [nM] | IC50 (CDK8/Cyclin C) [nM] | SMILES | further results |
| --- | --- | --- | --- |
| 6 | 6 | Cn1ncc2cc(-c3cnc4[nH]ccc4c3N3CCC4(CC3)CNC4=O)ccc21 |  |
| 2 |  | Cn1ncc2cc(-c3cnc4[nH]ccc4c3N3CCC4(CC3)NC(=O)NC4=O)ccc21 |  |
| 5 | 10 | Cn1ncc2cc(-c3cnc4[nH]cnc4c3N3CCC4(CCNC4=O)CC3)ccc21 | intrinsic clearance (CLint) [2]: 158 µL/min/mg; half-life [3]: 5 min |
| 10 | 2 | Cn1ncc2cc(-c3cnc4[nH]cc(Cl)c4c3N3CCC4(CCNC4=O)CC3)ccc21 | intrinsic clearance (CLint) [2]: 64 µL/min/mg; half-life [3]: 11 min |
| 3 |  | Cn1ncc2cc(-c3cnc4[nH]ccc4c3N3CCC4(CCCNC4=O)CC3)ccc21 |  |
| 6 | 7 | Cn1ncc2cc(-c3cnc4[nH]ccc4c3N3CCC4(CC3)CNC(=O)O4)ccc21 |  |
| 2 | 1 | Cn1ncc2cc(-c3cnc4[nH]nc(Cl)c4c3N3CCC4(CCNC4=O)CC3)ccc21 | Vd [5]: 0.8 L/kg; bioavailability [6]: 8%; inhibition [7]: Active; IC50 [4]: 2 nM; intrinsic clearance (CLint) [2]: 15 µL/min/mg; clearance [8]: 17 mL/min/kg; half-life [9]: 78 min; half-life [3]: 46 min; inhibition [10]: Active; IC50 [11]: 107 nM; AUC [12]: 864 ng·h/mL; Cmax [13]: 104 ng/mL |
